Laboratory results from US8524755B2 (priority 2009, dated 2013).

Legend:
Cannabinoid CB1 (h) = target: T1, Cannabinoid CB1 (h) (Homo sapiens, UniProt P21554); assay: Binding CB1 (h) (ag); conditions: read-out: % Inhibition of Control Specific Binding @ 10 μM
T1 construct: expressed in transfected cells; host or cells: CHO cells
Method: (§1) Radioligand binding assay methods utilized to measure the activity of compounds of the invention will be familiar to those skilled in the art. In each assay case, the assay components such as, for example, the cell-type, ligand, reference compound and the like, will be familiar to practitioners of such an assay.
(§2) Analysis and Expression of Results: Compounds of the invention were tested in the biochemical assays and percent inhibition of specific binding was determined. The specific ligand binding to the receptors is defined as the difference between the total binding and the nonspecific binding determined in the presence of an excess of unlabelled ligand. The results are expressed as a percent inhibition of control specific binding (100−((measured specific binding/control specific binding)×100)) obtained in the presence of test compounds.

Neurokinin NK1 (h) = target: T2, Neurokinin NK1 (h) (Homo sapiens, UniProt P25103); assay: Binding NK1 (h) (ag); conditions: read-out: % Inhibition of Control Specific Binding @ 10 μM
T2 construct: (endogenous); endogenous in cells; host or cells: U-373MG cells
Method: as §1, §2

MAO-A (h) = target: T3, MAO-A (h) (Homo sapiens, UniProt P21397); assay: Enzyme assay MAO-A (h); type: biochemical; conditions: read-out: % Inhibition of Control Values @ 10 μM
T3 construct: human placenta; from tissue; host or cells: human placenta
T3 sequence (P21397 1-527): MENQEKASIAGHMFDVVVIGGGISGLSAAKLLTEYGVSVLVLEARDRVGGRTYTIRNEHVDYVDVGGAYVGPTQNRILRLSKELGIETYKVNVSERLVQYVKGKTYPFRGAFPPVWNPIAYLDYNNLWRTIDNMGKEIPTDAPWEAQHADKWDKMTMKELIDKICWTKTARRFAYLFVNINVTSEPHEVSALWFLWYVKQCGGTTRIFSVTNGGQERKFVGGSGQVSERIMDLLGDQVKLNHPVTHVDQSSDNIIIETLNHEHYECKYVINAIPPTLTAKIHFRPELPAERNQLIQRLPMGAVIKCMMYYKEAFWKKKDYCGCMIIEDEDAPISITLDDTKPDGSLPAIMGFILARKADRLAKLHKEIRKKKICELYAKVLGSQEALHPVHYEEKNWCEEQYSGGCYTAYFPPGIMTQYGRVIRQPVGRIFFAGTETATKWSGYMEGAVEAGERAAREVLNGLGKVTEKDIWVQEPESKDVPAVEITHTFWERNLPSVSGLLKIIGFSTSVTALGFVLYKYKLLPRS
Source text: (§3) The enzyme assays provided below will be familiar to those skilled in the art.
(§4) Analysis and Expression of Results: The results are expressed as a percent of control specific activity ((measured specific activity/control specific activity)×100) obtained in the presence of the test compounds.

PNMT = target: T4, PNMT (Bos taurus, UniProt P10938); assay: Enzyme assay PNMT; type: biochemical, bovine; conditions: read-out: % Inhibition of Control Values @ 10 μM
T4 construct: bovine adrenal medulla; from tissue; host or cells: bovine adrenal medulla
T4 sequence (P10938 1-283): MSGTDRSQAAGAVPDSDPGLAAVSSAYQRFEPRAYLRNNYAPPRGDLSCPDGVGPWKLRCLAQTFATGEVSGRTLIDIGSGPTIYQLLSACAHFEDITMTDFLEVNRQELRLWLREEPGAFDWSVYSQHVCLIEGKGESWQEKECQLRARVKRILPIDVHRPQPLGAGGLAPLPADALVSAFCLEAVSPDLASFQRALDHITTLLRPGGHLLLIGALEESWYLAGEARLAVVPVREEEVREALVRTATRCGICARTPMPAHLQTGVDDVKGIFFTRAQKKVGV
Source text: as §3, §4

[1] = Quantification of RD162′ metabolites in human plasma; type: in vivo; conditions: for Concentrations in Patients' Plasma Expressed as a Percentage of the Concentration of RD162′, Average / Concentrations in Patients' Plasma Expressed as a Percentage of the Concentration of RD162′, Maximum / Concentrations in Patients' Plasma Expressed as a Percentage of the Concentration of RD162′, Minimum: 18 patients; for Concentrations in Patients' Plasma Expressed as a Percentage of the Concentration of RD162′, Minimum: RD162′ 150 to 480 mg per day, approx. three months; for concentration in the plasma (in words): plasma of 18 prostate cancer patients on RD162′
Method: The method used to derive the above data was as follows. Electrospray LC/MS/MS Assay of RD162′ Metabolites ((MI), (MII), (MIII)):
Plasma Extraction Procedures for Concentration Determinations: A human plasma sample (50 μL) was added to a 10-mL glass tube. A 10-μL volume of IS stock solution was added to the tube, followed by addition of 1 M phosphate buffer at pH 3.0 (400 μL). The mixture was vortexed and […] (5 mL) was added. The tube was vortexed for 30 sec and then centrifuged at 4540 g for 10 min. The solvent was transferred to a glass tube and dried under air flow at 35-40° C. The sample was reconstituted with 100 μL of methanol: 0.1% formic acid in water (7:3) vortexed for 30 sec, and sonicated for 5 min. The sample was transferred to an HPLC sample vial and centrifuged at 4540 g for 5 min. A 20-μL volume was then injected onto an LC/MS/MS system for assay.
HP1100 LC Pump Initial Conditions: HPLC Column: ACE C18, 5 μM, 150×2.1 mm id. Solvents: A % 40.0; B % 60.0; C % 0.0; D % 0.0; Valve A set to channel 1; Valve B set to channel 1. Flow: 0.300 mL/min; Stop Time: 9.0 min; MM. Pressure: 0 bar; Max. Pressure: 300 bar; Oven Temperature Left: 30.0° C.; Oven Temperature Right: 30.0° C.
LC/MS/MS Parameters for RD162′ Metabolite (MI)
Instrument Parameters—Function 1: Polarity ES-; Data type: MRM data; Function type: MRM of 5 channels.
HPLC Column: ACE C18, 5 μM, 150×2.1 mm id; HP1100 LC Pump mode: Isocratic; Isocratic solvent conditions: A % 25.0; B % 75.0; C % 0.0; D % 0.0; Valve A set to channel 1; Valve B set to channel 1; Flow: 0.300 mL/min; Stop Time: 4.5 min; Min. Pressure: 0 bar; Max. Pressure: 300 bar: Oven Temperature Left: 30.0° C.; Oven Temperature Right: 30.0° C.

T2 sequence (P25103 whole entry): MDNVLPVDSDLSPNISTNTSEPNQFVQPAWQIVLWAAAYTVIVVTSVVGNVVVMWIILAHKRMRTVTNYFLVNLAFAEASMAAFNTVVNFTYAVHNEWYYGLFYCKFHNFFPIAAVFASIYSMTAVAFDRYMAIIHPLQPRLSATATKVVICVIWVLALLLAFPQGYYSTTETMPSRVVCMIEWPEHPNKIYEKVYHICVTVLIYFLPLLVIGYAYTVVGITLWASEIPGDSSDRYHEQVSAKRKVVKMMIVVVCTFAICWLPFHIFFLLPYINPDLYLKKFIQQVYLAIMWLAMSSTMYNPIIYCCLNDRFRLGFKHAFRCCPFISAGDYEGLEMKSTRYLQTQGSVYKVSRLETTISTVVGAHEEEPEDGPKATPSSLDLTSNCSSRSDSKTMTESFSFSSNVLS
T1 sequence (P21554 whole entry): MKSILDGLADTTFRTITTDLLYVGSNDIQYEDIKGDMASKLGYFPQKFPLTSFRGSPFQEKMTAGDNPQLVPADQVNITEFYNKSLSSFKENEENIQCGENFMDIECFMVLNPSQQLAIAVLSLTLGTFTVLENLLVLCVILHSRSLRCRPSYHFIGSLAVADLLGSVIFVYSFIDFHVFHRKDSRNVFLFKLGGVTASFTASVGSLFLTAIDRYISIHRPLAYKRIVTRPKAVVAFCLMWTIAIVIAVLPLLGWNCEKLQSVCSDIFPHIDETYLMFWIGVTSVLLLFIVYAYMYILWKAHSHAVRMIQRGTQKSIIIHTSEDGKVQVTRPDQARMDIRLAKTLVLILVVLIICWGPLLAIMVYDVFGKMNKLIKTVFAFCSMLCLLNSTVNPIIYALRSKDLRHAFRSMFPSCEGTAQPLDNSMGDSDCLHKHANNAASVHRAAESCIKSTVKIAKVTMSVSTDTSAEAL

## CC1(C)C(=O)N(c2ccc(C#N)c(C(F)(F)F)c2)C(=S)N1c1ccc(C(=O)O)c(F)c1 [(MI), 4-(3-(4-cyano-3-(trifluoromethyl)phenyl)-5,5-dimethyl-4-oxo-2-thioxoimidazolidin-1-yl)-2-fluorobenzoic acid]
Cannabinoid CB1 (h)
  inhibition at 10 µM: -20%
Neurokinin NK1 (h)
  inhibition at 10 µM: -7%
MAO-A (h)
  inhibition at 10 µM: -5%
PNMT
  inhibition at 10 µM: -6%
[1]
  Concentrations in Patients' Plasma Expressed as a Percentage of the Concentration of RD162′, Average: 60%
  Concentrations in Patients' Plasma Expressed as a Percentage of the Concentration of RD162′, Maximum: 259%
  Concentrations in Patients' Plasma Expressed as a Percentage of the Concentration of RD162′, Minimum: 16%
  concentration in the plasma (in words): high concentrations

## CC1(C)C(=O)N(c2ccc(C#N)c(C(F)(F)F)c2)C(=S)N1c1ccc(C(N)=O)c(F)c1 [(MII), 4-(3-(4-Cyano-3-(trifluoromethyl)phenyl)-5,5-dimethyl-4-oxo-2-thioxoimidazolidin-1-yl)-2-fluorobenzamide]
Cannabinoid CB1 (h)
  inhibition at 10 µM: 11%
Neurokinin NK1 (h)
  inhibition at 10 µM: 9%
MAO-A (h)
  inhibition at 10 µM: 0%
PNMT
  inhibition at 10 µM: -4%
[1]
  Concentrations in Patients' Plasma Expressed as a Percentage of the Concentration of RD162′, Average: 112%
  Concentrations in Patients' Plasma Expressed as a Percentage of the Concentration of RD162′, Maximum: 204%
  Concentrations in Patients' Plasma Expressed as a Percentage of the Concentration of RD162′, Minimum: 49%
  concentration in the plasma (in words): high concentrations

## CC1(C)C(=O)N(c2ccc(C#N)c(C(F)(F)F)c2)C(=O)N1c1ccc(C(N)=O)c(F)c1 [(MIII), 4-(3-(4-cyano-3-(trifluoromethyl)phenyl)-5,5-dimethyl-2,4-dioxoimidazolidin-1-yl)-2-fluorobenzamide]
Cannabinoid CB1 (h)
  inhibition at 10 µM: 6%
Neurokinin NK1 (h)
  inhibition at 10 µM: -9%
MAO-A (h)
  inhibition at 10 µM: 14%
PNMT
  inhibition at 10 µM: -2%
[1]
  Concentrations in Patients' Plasma Expressed as a Percentage of the Concentration of RD162′, Average: 4%
  Concentrations in Patients' Plasma Expressed as a Percentage of the Concentration of RD162′, Maximum: 14%
  Concentrations in Patients' Plasma Expressed as a Percentage of the Concentration of RD162′, Minimum: 1%
  concentration in the plasma (in words): low concentrations

## CNC(=O)c1ccc(N2C(=O)N(c3ccc(C#N)c(C(F)(F)F)c3)C(=O)C2(C)C)cc1F [(MIV), 4-(3-(4-cyano-3-(trifluoromethyl)phenyl)-5,5-dimethyl-2,4-dioxoimidazolidin-1-yl)-2-fluoro-N-methylbenzamide]
Cannabinoid CB1 (h)
  inhibition at 10 µM: 4%
Neurokinin NK1 (h)
  inhibition at 10 µM: -7%
MAO-A (h)
  inhibition at 10 µM: 11%
PNMT
  inhibition at 10 µM: 14%
